Measurements reported in patent US9127035B2, “Compounds for use in the treatment of bacterial infection” (THE ROYAL INSTITUTION FOR THE ADVANCEMENT OF …, priority 2011, dated 2015).
Read-outs that look alike come from different tables or passages of the source.

Assays:
[1] = system: Enterococcus faecium ATCC 19434 which expresses AAC(6′)-li naturally; test: Checkerboard assay, potentiation of kanamycin A on a resistant strain; type: cell-based; conditions: for effect on the MIC50 of kanamycin A: compound 512 μg/ml combined with kanamycin A, compared to kanamycin A alone
Method: General biological methods. Enterococcus faecium ATCC 19434, Staphylococcus aureus ATCC 29213 and 43300, Acinetobacter baumannii ATCC 19606, Pseudomonas aeruginosa ATCC 27853, Klebsiella penumoniae ATCC 13883, and Escherichia coli ATCC 25922 and 11775 were all purchased from Cedarlane (Burlington, ON). E. faecium was grown in Difco brain heart infusion media (BD, Mississauga, ON), S. aureus and P. aeruginosa were grown in Trypticase soy media (BD, Mississauga, ON), and E. coli, A. baumannii, and K. pneumoniae were grown in Nutrient media (BD, Mississauga, ON). Antibacterial tests were performed using Falcon™ Black with Clear Bottom 96-well Microtest™ Optilux plates (BD, Mississauga, ON).
(§1) Checkerboard assay to determine the synergistic activity of compounds 3a-f with kanamycin A or tobramycin on a resistant strain. A two dimensional checkerboard MIC assay was carried out as previously described [Gao F, Yan X, Shakya T, Baettig O M, Ait-Mohand-Brunet S, Berghuis A M, Wright G D, Auclair K; J Med Chem, 2006, 49:5273-5281] to observe for the potentiation activity of compounds 3a-f towards the antibacterial activity of kanamycin A or tobramycin against Enterococcus faecium ATCC 19434 which expresses AAC(6′)-li naturally, or an E. coli strain engineered to express AAC(6)-li. Compounds 3a-f were diluted by 2-fold sequential dilutions to create a gradient from 32 to 512 μg/mL while the concentrations used for kanamycin A or tobramycin were 0, 10, 20, 40, 50, 100, 150, 200, 250, and 300 μg/mL. The cultures were grown at 37° C. for 16 h in 96-well plates, and then monitored for optical density at 600 nm using a Spectramax 190 microplate reader (Molecular Devices, Sunnyvale, Calif.). Data was normalized against a positive growth control and reported as a percentage of bacterial cell growth. All data points are from quadruplicate experiments.

PanK, PPAT and DPCK = test: Biosynthetic in vitro assay with a mixture of PanK, PPAT and DPCK enzymes; type: biochemical; conditions: substrate 5.0 mM, 3 hours at room temperature; HPLC, approximate ± 5%, duplicate
Method: Biosynthetic in vitro assay with a mixture of PanK, PPAT and DPCK enzymes. The E. coli enzymes pantothenate kinase (PanK or coaA enzyme), phosphopantetheine adenylyltransferase (PPAT or coaD enzyme), and dephosphocoenzyme A kinase (DPCK or coaE enzyme) were expressed and purified as previously described [Geerlof A, Lewendon A, Shaw W V J Biol Chem 1999, 274:27105-27111]. Each reaction mixture (500 μL) contained ATP (5.0 mM), KCl (20 mM), MgCl2 (10 mM), DTT (2.0 mM), PanK (5 μg, 278 nM), PPAT (5 μg, 500 nM), DPCK (5 μg, 454 nM) in Tris-Cl Buffer (50 mM, pH 7.6). The reaction was initiated with the addition of pantetheine (5.0 mM) for comparison, water as a negative control, or compounds 3a-e (5.0 mM). Reactions were incubated for 3 hours at room temperature and then stopped by heating the mixture to 95° C. for 5 min. The precipitated protein was removed by centrifugation (13,000 rpm for 5 min) and the supernatant was analyzed by LC/MS. Reversed-phase analytical HPLC was performed with an analytical 4.60×250 mm, SYNERGI 4p Hydro-RP 80A (Phenomenex, Torrance, Calif.) column coupled to an Agilent 6120 Quadrupole LC/MS system for ESI-MS analysis. The HPLC conditions had the sample eluted at a flow rate of 0.5 mL min^−1 using a combination of mobile phase A (H2O) and mobile phase B (acetonitrile), Elution conditions are as follows: isocratic 1% phase B from 0-3 min; followed by the following linear gradients of phase B: 1-10% from 3-5 min; 10-15% from 5-10 min; 15-30% from 10-13 min; an finally isocratic phase B at 30% from 13-26 min. The detector was set to 214 nm. These experiments were run in duplicate.

[2] = system: E. coli (BL21) harbouring AAC(6′)-li resistance gene in pET-22b(+) vector; test: Checkerboard assay, potentiation of tobramycin on engineered E. coli; type: cell-based; conditions: tobramycin combined with compound; E. coli engineered to express AAC(6′)-li
Method: as §1

[3] = target: T1, E. coli pantothenate kinase (PanK or coaA enzyme) (Escherichia coli, UniProt P0A6I3); test: PanK enzyme assay (Michaelis-Menten kinetics); type: biochemical; conditions: transformation by PanK; 25° C., Tris-HCl pH 7.6; triplicate
T1 construct: made in house
T1 sequence (P0A6I3 1-316): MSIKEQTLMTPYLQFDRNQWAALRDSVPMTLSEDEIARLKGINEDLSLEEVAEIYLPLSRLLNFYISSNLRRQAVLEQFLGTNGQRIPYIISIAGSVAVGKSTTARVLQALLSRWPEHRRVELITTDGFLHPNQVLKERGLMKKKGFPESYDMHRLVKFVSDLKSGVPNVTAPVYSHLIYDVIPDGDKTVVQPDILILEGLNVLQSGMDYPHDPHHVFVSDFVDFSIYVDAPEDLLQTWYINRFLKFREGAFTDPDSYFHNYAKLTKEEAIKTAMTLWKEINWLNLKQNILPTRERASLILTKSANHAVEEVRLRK
Method: PanK enzyme assay. The E. coli pantothenate kinase (PanK or coaA enzyme) was expressed and purified as previously described. Enzyme activity was measured as described in the literature [Strauss E, Begley T P J Biol Chem, 2002, 277:48205-48209]. This assay couples the production of ADP to the consumption of NADH through the activity of pyruvate kinase and lactic dehydrogenase. The decrease of NADH concentration was monitored at 340 nm. Reactions were performed at 25° C. in an Agilent 8453 UV-Vis spectrophotometer coupled to an Agilent 89090A Peltier temperature controller. Kinetic parameters were determined by fitting the rate data into the Michaelis-Menten equation using Prism 4.0 (GraphPad). Each reaction mixture (500 μL) contained ATP (1.5 mM), NADH (0.3 mM), phosphoenolpyruvate (0.5 mM), MgCl2 (10 mM), KCl (20 mM), pyruvate kinase (5 units), lactic dehydrogenase (5 units), and PanK (5 μg, 278 nM) in Tris-HCl buffer (50 mM, pH 7.6). The reaction was initiated by addition of the desired substrate (10-160 μM). All data points are from triplicate experiments.

[4] = target: T1, E. coli pantothenate kinase (PanK or coaA enzyme); conditions: natural substrates of PanK; literature values (footnotes a, b); cited from earlier work

Compound	effect on the MIC50 of kanamycin A [1]	Compounds detected by LC-MS: 2a-e, relative percentage (PanK, PPAT and DPCK) [%]	Compounds detected by LC-MS: 7a-e, relative percentage (PanK, PPAT and DPCK) [%]	Compounds detected by LC-MS: 6a-e, relative percentage (PanK, PPAT and DPCK) [%]	further results
CC(C)(CO)[C@@H](O)C(=O)NCCC(=O)NCCSCCCCC(=O)NC[C@H]1O[C@H](O[C@H]2[C@H](O)[C@@H](O)[C@H](N)C[C@@H]2N)[C@H](N)[C@@H](O)[C@@H]1O [Compound 3d, Neamine 6′-N—(R)-(3-((2-((2-amino-2-oxopentyl)thio)ethyl)amino)-3-oxopropyl)-2,4-dihydroxyl-3,3-dimethylbutanamide]	drop by half	90	10		reduction in the MIC of tobramycin [2]: 10 fold
CC(C)(CO)[C@@H](O)C(=O)NCCC(=O)NCCSCCCCCC(=O)NC[C@H]1O[C@H](O[C@H]2[C@H](O)[C@@H](O)[C@H](N)C[C@@H]2N)[C@H](N)[C@@H](O)[C@@H]1O [Compound 3e, Neamine 6′-N—(R)-(3-((2-((2-amino-2-oxohexyl)thio)ethyl)amino)-3-oxopropyl)-2,4-dihydroxyl-3,3-dimethylbutanamide]	drop by half	80	20		
CC(C)(CO)[C@@H](O)C(=O)NCCC(=O)NCCSCC(=O)NC[C@H]1O[C@H](O[C@H]2[C@H](O)[C@@H](O)[C@H](N)C[C@@H]2N)[C@H](N)[C@@H](O)[C@@H]1O [Compound 3a, Neamine 6′-N—(R)-(3-((2-((2-amino-2-oxoethyl)thio)ethyl)amino)-3-oxopropyl)-2,4-dihydroxyl-3,3-dimethylbutanamide]	negligible effect		25	5	Compounds detected by LC-MS: 3a-e (starting material), relative percentage (PanK, PPAT and DPCK): 70%; Km [3]: ≥ 500 µM
CC(C)(CO)[C@@H](O)C(=O)NCCC(=O)NCCSCCC(=O)NC[C@H]1O[C@H](O[C@H]2[C@H](O)[C@@H](O)[C@H](N)C[C@@H]2N)[C@H](N)[C@@H](O)[C@@H]1O [Compound 3b, Neamine 6′-N—(R)-(3-((2-((2-amino-2-oxopropyl)thio)ethyl)amino)-3-oxopropyl)-2,4-dihydroxyl-3,3-dimethylbutanamide]		10	70	20	
CC(C)(CO)[C@@H](O)C(=O)NCCC(=O)O [Pantothenic acid]					Km [4]: 17 ± 2 µM; kcat [4]: 1.07 ± 0.04^a sec^−1
NC[C@H]1O[C@H](O[C@H]2[C@H](O)[C@@H](O[C@H]3O[C@H](CO)[C@@H](O)[C@H](N)[C@H]3O)[C@H](N)C[C@@H]2N)[C@H](O)[C@@H](O)[C@@H]1O [kanamycin A, reference compound]					MIC50 of kanamycin A (minimum concentration causing a 50% growth inhibition) ([1]; kanamycin A alone, in the absence of compounds 3a-e): ~125 µg/mL
CC(C)(CO)[C@@H](O)C(=O)NCCC(=O)NCCS [Pantetheine]					kcat [4]: 0.32 ± 0.02^b sec^−1
CC(C)(CO)[C@@H](O)C(=O)NCCC(=O)NCCSCCCC(=O)NC[C@H]1O[C@H](O[C@H]2[C@H](O)[C@@H](O)[C@H](N)C[C@@H]2N)[C@H](N)[C@@H](O)[C@@H]1O [Compound 3c, Neamine 6′-N—(R)-(3-((2-((2-amino-2-oxobutyl)thio)ethyl)amino)-3-oxopropyl)-2,4-dihydroxyl-3,3-dimethylbutanamide]		55	40	5	dose dependence of the potentiation of kanamycin A ([1]; compound 32 to 512 μg/mL with kanamycin A): dose-dependent effect
